Experimental data as given in PubChem BioAssay AID1259407 (Chemical Carcinogenesis Research Information System (CCRIS), 2018).
Calls of active or inactive are those of the source. No rule for the calls is given here.

System: CCRIS mutagenicity, Ames/micronucleus/aberration tests
Assay: CCRIS mutagenicity studies
[1] = Test System: AMES SALMONELLA TYPHIMURIUM, Strain/Indicator: TA98, Metabolic Activation: RAT, LIVER, S-9, AROCLOR 1254, Method: PREINCUBATION
[2] = Test System: AMES SALMONELLA TYPHIMURIUM, Strain/Indicator: TA100, Metabolic Activation: RAT, LIVER, S-9, AROCLOR 1254, Method: PREINCUBATION
[3] = Test System: AMES SALMONELLA TYPHIMURIUM, Strain/Indicator: TA98, Metabolic Activation: NONE, Method: STANDARD PLATE
[4] = Test System: AMES SALMONELLA TYPHIMURIUM, Strain/Indicator: TA100, Metabolic Activation: NONE, Method: STANDARD PLATE
[5] = Test System: AMES SALMONELLA TYPHIMURIUM, Strain/Indicator: TA100, Metabolic Activation: NONE, Method: PREINCUBATION
[6] = Test System: AMES SALMONELLA TYPHIMURIUM, Strain/Indicator: TA97, Metabolic Activation: NONE, Method: STANDARD PLATE

CC(C)[N+](=O)[O-]
mutagenic call (End Point: IN VITRO CHROMOSOMAL ABERRATIONS, Test System: CHINESE HAMSTER OVARY CELLS, Metabolic Activation: NONE): inactive; negative | mutagenic call (End Point: IN VITRO CHROMOSOMAL ABERRATIONS, Test System: CHINESE HAMSTER OVARY CELLS, Metabolic Activation: RAT, LIVER, S-9, AROCLOR 1254): inactive; negative | mutagenic call (End Point: In vitro chromosomal aberrations, Test System: Chinese hamster lung (CHL/IU) cells, Metabolic Activation: None): inactive; negative | mutagenic call (End Point: In vitro chromosomal aberrations, Test System: Chinese hamster lung (CHL/IU) cells, Metabolic Activation: Rat, Liver, S9, Phenobarbital and 5,6-benzoflavone): inactive; negative | mutagenic call (Test System: AMES SALMONELLA TYPHIMURIUM, Strain/Indicator: TA98(NR), Metabolic Activation: NONE, Method: PREINCUBATION): active; positive | mutagenic call (Test System: AMES SALMONELLA TYPHIMURIUM, Strain/Indicator: TA98(NR), Metabolic Activation: RAT, LIVER, S-9, CLOPHEN A-50, Method: PREINCUBATION): active; positive | mutagenic call [1]: active; positive | mutagenic call (Test System: AMES SALMONELLA TYPHIMURIUM, Strain/Indicator: TA98, Metabolic Activation: RAT, LIVER, S-9, CLOPHEN A-50, Method: PREINCUBATION): active; positive | mutagenic call (Test System: AMES SALMONELLA TYPHIMURIUM, Strain/Indicator: TA98, Metabolic Activation: RAT, LIVER, S-9, KANECHLOR 500, Method: PREINCUBATION): active; positive | mutagenic call (Test System: AMES SALMONELLA TYPHIMURIUM, Strain/Indicator: TA100(NR), Metabolic Activation: NONE, Method: PREINCUBATION): active; positive | mutagenic call (Test System: AMES SALMONELLA TYPHIMURIUM, Strain/Indicator: TA100(NR), Metabolic Activation: RAT, LIVER, S-9, CLOPHEN A-50, Method: PREINCUBATION): active; positive | mutagenic call [2]: active; positive | mutagenic call (Test System: AMES SALMONELLA TYPHIMURIUM, Strain/Indicator: TA100, Metabolic Activation: RAT, LIVER, S-9, AROCLOR, Method: PREINCUBATION): active; positive | mutagenic call (Test System: AMES SALMONELLA TYPHIMURIUM, Strain/Indicator: TA100, Metabolic Activation: RAT, LIVER, S-9, CLOPHEN A-50, Method: PREINCUBATION): active; positive | mutagenic call (Test System: AMES SALMONELLA TYPHIMURIUM, Strain/Indicator: TA100, Metabolic Activation: RAT, LIVER, S-9, KANECHLOR 500, Method: PREINCUBATION): active; positive | mutagenic call (Test System: AMES SALMONELLA TYPHIMURIUM, Strain/Indicator: TA102, Metabolic Activation: NONE, Method: PREINCUBATION): active; positive | mutagenic call (Test System: AMES SALMONELLA TYPHIMURIUM, Strain/Indicator: TA102, Metabolic Activation: RAT, LIVER, S-9, AROCLOR 1254, Method: PREINCUBATION): active; positive | mutagenic call (Test System: AMES SALMONELLA TYPHIMURIUM, Strain/Indicator: TA102, Metabolic Activation: RAT, LIVER, S-9, AROCLOR, Method: PREINCUBATION): active; positive | mutagenic call (Test System: CHINESE HAMSTER V-79, Strain/Indicator: V-79/6-THIOGUANINE, Metabolic Activation: NONE, Method: STANDARD PLATE): active; positive | mutagenic call (Test System: CHINESE HAMSTER V-79, Strain/Indicator: V-79/6-THIOGUANINE, Metabolic Activation: RAT, HEPATOCYTES): inactive; negative | mutagenic call (Test System: CHINESE HAMSTER V-79, Strain/Indicator: V-79/OUABAIN, Metabolic Activation: NONE): inactive; negative | mutagenic call (Test System: CHINESE HAMSTER V-79, Strain/Indicator: V-79/OUABAIN, Metabolic Activation: RAT, HEPATOCYTES): inactive; negative | mutagenic call (Test System: E. COLI, Strain/Indicator: WP2 UVRA (PKM101), Metabolic Activation: NONE, Method: PREINCUBATION): active; positive | mutagenic call (Test System: E. COLI, Strain/Indicator: WP2 UVRA (PKM101), Metabolic Activation: RAT, LIVER, S-9, KANECHLOR 1254, Method: PREINCUBATION): active; positive | mutagenic call (Test System: UDS HUMAN HEPATOCYTES, Strain/Indicator: THY INCORP, Metabolic Activation: NONE, Method: AUTORADIOGRAPHY): active; positive | mutagenic call (Test System: UDS HUMAN HEPATOCYTES, Strain/Indicator: THY-INCORP, Metabolic Activation: NONE, Method: AUTORADIOGRAPHY): active; positive | mutagenic call (Test System: UDS MOUSE HEPATOCYTES, Strain/Indicator: THY INCORP, Metabolic Activation: NONE, Method: AUTORADIOGRAPHY): active; positive | mutagenic call (Test System: UDS RAT HEPATOCYTES, Strain/Indicator: THY INCORP, Metabolic Activation: NONE): active; positive | mutagenic call (Test System: UDS RAT HEPATOCYTES, Strain/Indicator: THY INCORP, Metabolic Activation: NONE, Method: AUTORADIOGRAPHY): active; positive | mutagenic call (Test System: UDS RAT HEPATOCYTES, Strain/Indicator: THY-INCORP, Metabolic Activation: NONE, Method: AUTORADIOGRAPHY): active; positive | mutagenic call (Test System: UDS RODENT HEPATOCYTES, Strain/Indicator: THY INCORP (NON-S-PHASE), Metabolic Activation: IN VIVO, Method: AUTORADIOGRAPHY): active; positive | mutagenic call (Test System: UDS RODENT HEPATOCYTES, Strain/Indicator: THY INCORP (NON-S-PHASE), Metabolic Activation: NONE, Method: LIQUID SCINTILLATION COUNTING): active; positive | mutagenic call (Test System: UDS RODENT HEPATOCYTES, Strain/Indicator: THY INCORP (NON-S-PHASE), Metabolic Activation: NONE, Method: PREINCUBATION): inactive; negative

[N-]=[N+]=NC[C@@H](O)[C@H](O)[C@H](O)[C@@H](O)C(=O)O
mutagenic call [3]: inactive; negative | mutagenic call [4]: active; positive

Cc1c2c(cc3c1ccc1ccccc13)C=C[C@@H](O)[C@@H]2O
mutagenic call (Test System: CHINESE HAMSTER V-79, Strain/Indicator: V-79/8-AZAGUANINE, Metabolic Activation: NONE, Method: STANDARD PLATE): active; positive

CCN(CC)S(=O)(=O)c1ccc(NC(C)=O)cc1
mutagenic call (Test System: AMES SALMONELLA TYPHIMURIUM, Strain/Indicator: TA98, Metabolic Activation: NONE, Method: PREINCUBATION): inactive; negative | mutagenic call [1]: inactive; negative | mutagenic call [5]: inactive; negative | mutagenic call [2]: inactive; negative

O=C(O)c1cn(-c2ccc(F)cc2)c2cc(N3CCNCC3)c(F)cc2c1=O
mutagenic call [6]: inactive; negative | mutagenic call (Test System: AMES SALMONELLA TYPHIMURIUM, Strain/Indicator: TA97, Metabolic Activation: S-9, Method: STANDARD PLATE): inactive; negative | mutagenic call [3]: inactive; negative | mutagenic call (Test System: AMES SALMONELLA TYPHIMURIUM, Strain/Indicator: TA98, Metabolic Activation: S-9, Method: STANDARD PLATE): inactive; negative | mutagenic call [4]: inactive; negative | mutagenic call (Test System: AMES SALMONELLA TYPHIMURIUM, Strain/Indicator: TA100, Metabolic Activation: S-9, Method: STANDARD PLATE): inactive; negative | mutagenic call (Test System: AMES SALMONELLA TYPHIMURIUM, Strain/Indicator: TA102, Metabolic Activation: NONE, Method: STANDARD PLATE): inactive; negative | mutagenic call (Test System: AMES SALMONELLA TYPHIMURIUM, Strain/Indicator: TA102, Metabolic Activation: S-9, Method: STANDARD PLATE): inactive; negative

CC1=C(O)C(=O)C(O)CO1 (stereo unspecified)
mutagenic call [5]: active; positive | mutagenic call (Test System: AMES SALMONELLA TYPHIMURIUM, Strain/Indicator: TA100, Metabolic Activation: S-9, Method: PREINCUBATION): active; positive

O=C1C=Cc2ccc3c4c(ccc1c24)C(=O)C=C3
mutagenic call [6]: active; positive | mutagenic call (Test System: AMES SALMONELLA TYPHIMURIUM, Strain/Indicator: TA97, Metabolic Activation: RAT, LIVER, S-9, PCB, Method: STANDARD PLATE): active; positive | mutagenic call [3]: inactive; negative | mutagenic call (Test System: AMES SALMONELLA TYPHIMURIUM, Strain/Indicator: TA98, Metabolic Activation: RAT, LIVER, S-9, PCB, Method: STANDARD PLATE): inactive; negative | mutagenic call [4]: inactive; negative | mutagenic call (Test System: AMES SALMONELLA TYPHIMURIUM, Strain/Indicator: TA100, Metabolic Activation: RAT, LIVER, S-9, PCB, Method: STANDARD PLATE): inactive; negative
